What was measured:
[1] = system: brains, heart, liver, muscle, and DRG of the NHPs; test: Maturation of TTM-001 and TTM-002 capsids, NGS enrichment in NHP tissues; type: in vivo; conditions: relative to AAV9 control
Outline: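 Variants carry mutations within and flanking the loop IV peptide insert: positions 450–466 were triplet-randomized, while positions 449–466 received low-frequency point mutations. The combined pool went into two NHPs, and each peptide was scored by NGS enrichment ratio against AAV9.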

brain = test: Matured TTM-001 and TTM-002 variants, NGS enrichment in mouse brain; type: in vivo, mice; conditions: relative to AAV9 control
[2] = NGS fold-enrichment of matured AAV capsid variants, NHP brain, RNA
[3] = NGS fold-enrichment, DRG of NHPs
[4] = NGS fold-enrichment, RNA, brain of NHPs
[5] = NGS fold-enrichment, heart of NHPs
[6] = NGS fold-enrichment, liver DNA of NHPs
[7] = NGS fold-enrichment, liver RNA of NHPs
[8] = NGS fold-enrichment, muscle of NHPs
[9] = NGS fold-enrichment, brain of mice
[10] = NGS fold-enrichment of RNA, NHP brain
[11] = NGS fold-enrichment, NHP liver DNA
[12] = NGS fold-enrichment, NHP liver RNA
[13] = NGS fold-enrichment, NHP muscle
[14] = NGS fold-enrichment, mouse brain

Row | Sequence | Fold Enrichment relative to AAV9, DRG (NHP) [1, 3] | Fold Enrichment relative to AAV9, Brain (NHP) [1, 4] | Fold Enrichment relative to AAV9, Heart (NHP) [1, 5] | Fold Enrichment relative to AAV9, Liver DNA (NHP) [1, 6] | Fold Enrichment relative to AAV9, Liver RNA (NHP) [1, 7] | Fold Enrichment relative to AAV9, Muscle (NHP) [1, 8] | Fold Enrichment relative to AAV9, Brain (Mouse) (brain; [9]) | Fold Enrichment relative to AAV9, Brain (NHP) [1, 10] | Fold Enrichment relative to AAV9, DRG (NHP) ([1]; NGS fold-enrichment, NHP DRG) | Fold Enrichment relative to AAV9, Heart (NHP) ([1]; NGS fold-enrichment, NHP heart) | Fold Enrichment relative to AAV9, Liver DNA (NHP) [1, 11] | Fold Enrichment relative to AAV9, Liver RNA (NHP) [1, 12] | Fold Enrichment relative to AAV9, Muscle (NHP) [1, 13] | Fold Enrichment relative to AAV9, Brain (Mouse) (brain; [14]) | other results
1 | KTINGSGSPHSKAQKTLT |  |  |  |  |  |  |  |  |  |  |  |  |  |  | Fold Enrichment relative to AAV9, Brain (NHP) [1, 2]: 56.844 fold; Fold Enrichment relative to AAV9, DRG (NHP) ([1]; NHP DRG): 0.000 fold; Fold Enrichment relative to AAV9, Heart (NHP) ([1]; NHP heart): 0.017 fold; Fold Enrichment relative to AAV9, Liver DNA (NHP) ([1]; NHP liver, DNA): 1.400 fold; Fold Enrichment relative to AAV9, Liver RNA (NHP) ([1]; NHP liver, RNA): 1.800 fold; Fold Enrichment relative to AAV9, Muscle (NHP) ([1]; NHP muscle): 0.009 fold; Fold Enrichment relative to AAV9, Brain (Mouse) (brain; mouse brain): 66.415 fold
2 | KEVVGSGSPHSKAQNQQT |  |  |  |  |  |  |  |  |  |  |  |  |  |  | Fold Enrichment relative to AAV9, Brain (NHP) [1, 2]: 56.371 fold; Fold Enrichment relative to AAV9, DRG (NHP) ([1]; NHP DRG): 0.000 fold; Fold Enrichment relative to AAV9, Heart (NHP) ([1]; NHP heart): 0.000 fold; Fold Enrichment relative to AAV9, Liver DNA (NHP) ([1]; NHP liver, DNA): 0.323 fold; Fold Enrichment relative to AAV9, Liver RNA (NHP) ([1]; NHP liver, RNA): 0.000 fold; Fold Enrichment relative to AAV9, Muscle (NHP) ([1]; NHP muscle): 0.000 fold; Fold Enrichment relative to AAV9, Brain (Mouse) (brain; mouse brain): 116.964 fold
3 | KTINGSGSPHSKAQREMT |  |  |  |  |  |  |  |  |  |  |  |  |  |  | Fold Enrichment relative to AAV9, Brain (NHP) [1, 2]: 51.076 fold; Fold Enrichment relative to AAV9, DRG (NHP) ([1]; NHP DRG): 0.000 fold; Fold Enrichment relative to AAV9, Heart (NHP) ([1]; NHP heart): 24.900 fold; Fold Enrichment relative to AAV9, Liver DNA (NHP) ([1]; NHP liver, DNA): 0.476 fold; Fold Enrichment relative to AAV9, Liver RNA (NHP) ([1]; NHP liver, RNA): 1.564 fold; Fold Enrichment relative to AAV9, Muscle (NHP) ([1]; NHP muscle): 143.49 fold; Fold Enrichment relative to AAV9, Brain (Mouse) (brain; mouse brain): 70.961 fold
4 | KNALGSGSPHSKAQNQQT | 0.000 fold | 60.014 fold | 0.003 fold | 0.213 fold | 0.682 fold | 0.000 fold | 137.222 fold |  |  |  |  |  |  |  | 
5 | KTIDGSGSPHSKGQNRQT | 0.000 fold | 73.930 fold | 0.000 fold | 0.091 fold | 0.106 fold | 0.000 fold | 63.626 fold |  |  |  |  |  |  |  | 
6 | KSIKGNGSPHSKAQNQQT | 0.000 fold | 75.196 fold | 0.000 fold | 0.000 fold | 0.000 fold | 0.000 fold | 90.251 fold | 75.196 fold | 0.000 fold | 0.000 fold | 0.000 fold | 0.000 fold | 0.000 fold | 90.251 fold | 
7 | KTIKGQDSPHKIGQNQQT |  |  |  |  |  |  |  | 110.357 fold | 0.000 fold | 0.103 fold | 0.135 fold | 0.166 fold | 0.058 fold | 11.829 fold | 
8 | KTINGSGSPHSKAQDRQS |  |  |  |  |  |  |  |  |  |  |  |  |  |  | Fold Enrichment relative to AAV9, Brain (NHP) [1, 2]: 55.137 fold; Fold Enrichment relative to AAV9, DRG (NHP) ([1]; NHP DRG): 1.146 fold; Fold Enrichment relative to AAV9, Heart (NHP) ([1]; NHP heart): 0.016 fold; Fold Enrichment relative to AAV9, Liver DNA (NHP) ([1]; NHP liver, DNA): 0.086 fold; Fold Enrichment relative to AAV9, Liver RNA (NHP) ([1]; NHP liver, RNA): 0.644 fold; Fold Enrichment relative to AAV9, Muscle (NHP) ([1]; NHP muscle): 0.106 fold; Fold Enrichment relative to AAV9, Brain (Mouse) (brain; mouse brain): 55.701 fold
9 | KTFNGSGSPHSKAPNLQT | 0.000 fold | 121.436 fold | 0.167 fold | 0.015 fold | 0.000 fold | 0.000 fold | 168.920 fold | 121.436 fold | 0.000 fold | 0.167 fold | 0.015 fold | 0.000 fold | 0.000 fold | 168.920 fold | 
10 | TTINGSGSPHSKAQNQQT (peptide inserted in AAV capsid) | 1.340 fold | 114.856 fold | 14.856 fold | 0.957 fold | 1.281 fold | 0.827 fold | 72.058 fold | 114.856 fold | 1.340 fold | 14.856 fold | 0.957 fold | 1.281 fold | 0.827 fold | 72.058 fold | 
11 | KTINGGGSPHSKAQNQLI | 0.000 fold | 83.881 fold | 0.000 fold | 0.387 fold | 0.046 fold | 0.000 fold | 78.383 fold | 83.881 fold | 0.000 fold | 0.000 fold | 0.387 fold | 0.046 fold | 0.000 fold | 78.383 fold | 
12 | KTIIGSGSPHSKAQNRHT | 0.000 fold | 217.176 fold | 0.000 fold | 0.000 fold | 0.000 fold | 0.000 fold | 210.515 fold | 217.176 fold | 0.000 fold | 0.000 fold | 0.000 fold | 0.000 fold | 0.000 fold | 210.515 fold | 
13 | KAIIGHESPHKSGQNQQT |  |  |  |  |  |  |  | 88.563 fold | 0.000 fold | 0.150 fold | 0.145 fold | 0.062 fold | 0.000 fold | 8.530 fold | 
14 | KTDRGSGSPHSKAQNQQT | 0.000 fold | 61.419 fold | 0.004 fold | 0.316 fold | 0.211 fold | 0.000 fold | 74.256 fold |  |  |  |  |  |  |  | 

Reference: patent US20260250318A1, “COMPOSITIONS AND METHODS FOR CROSSING THE BLOOD BRAIN BARRIER” (VOYAGER THERAPEUTICS, INC., priority 2022, published 2026)
